ChEMBL document CHEMBL1909046, “DrugMatrix in vitro pharmacology data”

Tested on: not listed separately
Test: DRUGMATRIX: Serotonin (5-Hydroxytryptamine) 5-HT3 radioligand binding (ligand: [3H] GR-65630)
Format: cell membranes, Membrane
Settings: hek293; Not Active = under 50% inhibition at 10 µM
With `CC#C[C@]1(O)CC[C@H]2[C@@H]3CCC4=CC(=O)CCC4=C3[C@@H](c3ccc(N(C)C)cc3)C[C@@]21C` [MIFEPRISTONE] the IC50 was “Not Active” and the Ki was “Not Active”.
With `CC(O)C(=O)O` (configuration not stated) [LACTIC ACID] the IC50 was “Not Active” and the Ki was “Not Active”.
With `Cc1ccnc(NS(=O)(=O)c2ccc(N)cc2)n1` [SULFAMERAZINE] the IC50 was “Not Active” and the Ki was “Not Active”.
For `CC(C)(C)NC[C@H](O)COc1cccc2c1CCCC2=O` [LEVOBUNOLOL], the IC50 was “Not Active” and the Ki was “Not Active”.
With `CCOc1cc(N)c(Cl)cc1C(=O)NCC1CN(Cc2ccc(F)cc2)CCO1` (configuration not stated) [MOSAPRIDE] the IC50 was “Not Active” and the Ki was “Not Active”.
For `CC(=O)O[C@]1(C(C)=O)CC[C@H]2[C@@H]3C[C@H](C)C4=CC(=O)CC[C@]4(C)[C@H]3CC[C@@]21C` [MEDROXYPROGESTERONE ACETATE], the IC50 was “Not Active” and the Ki was “Not Active”.
For `OC[C@@H](O)[C@@H](O)[C@H](O)[C@H](O)CO` [MANNITOL], the IC50 was “Not Active” and the Ki was “Not Active”.
For `CC(Cl)(Cl)Cl` [TRICHLOROETHANE], the IC50 was “Not Active” and the Ki was “Not Active”.
For LEAD(IV) ACETATE, the IC50 was “Not Active” and the Ki was “Not Active”.
In the case of `O=C(c1ccccc1)c1ccc2n1CCC2C(=O)O` (configuration not stated) [KETOROLAC], the IC50 is reported as “Not Active” and the Ki is reported as “Not Active”.

Tested on: not listed separately
Test: DRUGMATRIX: Calcium Channel Type L, Phenylalkylamine radioligand binding (ligand: [3H] (-)-Desmethoxyverapamil (D-888))
Format: cell membranes, Rattus norvegicus, Wistar, Brain, Membrane
Settings: Not Active = under 50% inhibition at 10 µM
With `CC(O)C(=O)O` (configuration not stated) [LACTIC ACID] the IC50 was “Not Active” and the Ki was “Not Active”.
With `Cc1ccnc(NS(=O)(=O)c2ccc(N)cc2)n1` [SULFAMERAZINE] the IC50 was “Not Active” and the Ki was “Not Active”.
With `CC(C)(C)NC[C@H](O)COc1cccc2c1CCCC2=O` [LEVOBUNOLOL] the IC50 was “Not Active” and the Ki was “Not Active”.
For `CCOc1cc(N)c(Cl)cc1C(=O)NCC1CN(Cc2ccc(F)cc2)CCO1` (configuration not stated) [MOSAPRIDE], the IC50 was “Not Active” and the Ki was “Not Active”.
With `CC(=O)O[C@]1(C(C)=O)CC[C@H]2[C@@H]3C[C@H](C)C4=CC(=O)CC[C@]4(C)[C@H]3CC[C@@]21C` [MEDROXYPROGESTERONE ACETATE] the IC50 was “Not Active” and the Ki was “Not Active”.
With `OC[C@@H](O)[C@@H](O)[C@H](O)[C@H](O)CO` [MANNITOL] the IC50 was “Not Active” and the Ki was “Not Active”.
For `CC(Cl)(Cl)Cl` [TRICHLOROETHANE], the IC50 was “Not Active” and the Ki was “Not Active”.
For LEAD(IV) ACETATE, the IC50 was “Not Active” and the Ki was “Not Active”.
With `O=C(c1ccccc1)c1ccc2n1CCC2C(=O)O` (configuration not stated) [KETOROLAC] the IC50 was “Not Active” and the Ki was “Not Active”.

Same assay, conditions: Not Active = under 50% inhibition at 10 µM; read-out: IC50
`CC#C[C@]1(O)CC[C@H]2[C@@H]3CCC4=CC(=O)CCC4=C3[C@@H](c3ccc(N(C)C)cc3)C[C@@]21C` [MIFEPRISTONE] gave an IC50 of 16 µM.

Same assay, conditions: Not Active = under 50% inhibition at 10 µM; read-out: Ki
Work on `CC#C[C@]1(O)CC[C@H]2[C@@H]3CCC4=CC(=O)CCC4=C3[C@@H](c3ccc(N(C)C)cc3)C[C@@]21C` [MIFEPRISTONE] yielded a Ki of 15.6 µM.

Molecular target: T1, C-C chemokine receptor type 4 (Homo sapiens, UniProt P51679); note: in other assays of this panel Not Active means under 50% inhibition at 10 µM
T1 sequence (P51679 whole entry): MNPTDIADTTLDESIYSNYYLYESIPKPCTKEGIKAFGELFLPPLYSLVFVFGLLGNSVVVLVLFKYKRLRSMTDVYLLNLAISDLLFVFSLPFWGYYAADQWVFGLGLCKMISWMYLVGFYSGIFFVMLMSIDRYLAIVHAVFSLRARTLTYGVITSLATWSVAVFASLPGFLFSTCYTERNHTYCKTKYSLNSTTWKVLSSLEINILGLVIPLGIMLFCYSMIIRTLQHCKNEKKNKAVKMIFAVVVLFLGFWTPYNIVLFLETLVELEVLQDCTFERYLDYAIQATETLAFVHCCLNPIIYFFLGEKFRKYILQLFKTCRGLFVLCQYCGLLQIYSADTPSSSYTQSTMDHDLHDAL
Test: not given
Format: cell membranes, Chem-1, Membrane
Settings: chem-1
With `CC#C[C@]1(O)CC[C@H]2[C@@H]3CCC4=CC(=O)CCC4=C3[C@@H](c3ccc(N(C)C)cc3)C[C@@]21C` [MIFEPRISTONE] the IC50 was “Not Active”.
For `CC(O)C(=O)O` (configuration not stated) [LACTIC ACID], the IC50 was “Not Active”.
In the case of `Cc1ccnc(NS(=O)(=O)c2ccc(N)cc2)n1` [SULFAMERAZINE], the IC50 is reported as “Not Active”.
With `CC(C)(C)NC[C@H](O)COc1cccc2c1CCCC2=O` [LEVOBUNOLOL] the IC50 was “Not Active”.
For `CCOc1cc(N)c(Cl)cc1C(=O)NCC1CN(Cc2ccc(F)cc2)CCO1` (configuration not stated) [MOSAPRIDE], the IC50 was “Not Active”.
With `CC(=O)O[C@]1(C(C)=O)CC[C@H]2[C@@H]3C[C@H](C)C4=CC(=O)CC[C@]4(C)[C@H]3CC[C@@]21C` [MEDROXYPROGESTERONE ACETATE] the IC50 was “Not Active”.
With `OC[C@@H](O)[C@@H](O)[C@H](O)[C@H](O)CO` [MANNITOL] the IC50 was “Not Active”.
In the case of `CC(Cl)(Cl)Cl` [TRICHLOROETHANE], the IC50 is reported as “Not Active”.
For LEAD(IV) ACETATE, the IC50 was “Not Active” and the Ki was “Not Active”.
With `O=C(c1ccccc1)c1ccc2n1CCC2C(=O)O` (configuration not stated) [KETOROLAC] the IC50 was “Not Active”.

Tested on: not listed separately
Test: DRUGMATRIX: Leukotriene, BLT (LTB4) radioligand binding (ligand: [3H]LTB4)
Format: cell membranes, Membrane
Settings: u-937; Not Active = under 50% inhibition at 10 µM
For `CC#C[C@]1(O)CC[C@H]2[C@@H]3CCC4=CC(=O)CCC4=C3[C@@H](c3ccc(N(C)C)cc3)C[C@@]21C` [MIFEPRISTONE], the IC50 was “Not Active” and the Ki was “Not Active”.
With `CC(O)C(=O)O` (configuration not stated) [LACTIC ACID] the IC50 was “Not Active” and the Ki was “Not Active”.
With `Cc1ccnc(NS(=O)(=O)c2ccc(N)cc2)n1` [SULFAMERAZINE] the IC50 was “Not Active” and the Ki was “Not Active”.
For `CC(C)(C)NC[C@H](O)COc1cccc2c1CCCC2=O` [LEVOBUNOLOL], the IC50 was “Not Active” and the Ki was “Not Active”.
In the case of `CCOc1cc(N)c(Cl)cc1C(=O)NCC1CN(Cc2ccc(F)cc2)CCO1` (configuration not stated) [MOSAPRIDE], the IC50 is reported as “Not Active” and the Ki is reported as “Not Active”.
For `CC(=O)O[C@]1(C(C)=O)CC[C@H]2[C@@H]3C[C@H](C)C4=CC(=O)CC[C@]4(C)[C@H]3CC[C@@]21C` [MEDROXYPROGESTERONE ACETATE], the IC50 was “Not Active” and the Ki was “Not Active”.
In the case of `OC[C@@H](O)[C@@H](O)[C@H](O)[C@H](O)CO` [MANNITOL], the IC50 is reported as “Not Active” and the Ki is reported as “Not Active”.
For `CC(Cl)(Cl)Cl` [TRICHLOROETHANE], the IC50 was “Not Active” and the Ki was “Not Active”.
In the case of LEAD(IV) ACETATE, the IC50 is reported as “Not Active” and the Ki is reported as “Not Active”.
For `O=C(c1ccccc1)c1ccc2n1CCC2C(=O)O` (configuration not stated) [KETOROLAC], the IC50 was “Not Active” and the Ki was “Not Active”.

Molecular target: T2, Polyunsaturated fatty acid lipoxygenase ALOX15 (Oryctolagus cuniculus, UniProt P12530);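 note: inhibition of 15-lipoxygenase enzyme activity measured with linoleic acid as the substrate; in other assays of this panel Not Active means under 50% inhibition at 10 µM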
T2 sequence (P12530 whole entry): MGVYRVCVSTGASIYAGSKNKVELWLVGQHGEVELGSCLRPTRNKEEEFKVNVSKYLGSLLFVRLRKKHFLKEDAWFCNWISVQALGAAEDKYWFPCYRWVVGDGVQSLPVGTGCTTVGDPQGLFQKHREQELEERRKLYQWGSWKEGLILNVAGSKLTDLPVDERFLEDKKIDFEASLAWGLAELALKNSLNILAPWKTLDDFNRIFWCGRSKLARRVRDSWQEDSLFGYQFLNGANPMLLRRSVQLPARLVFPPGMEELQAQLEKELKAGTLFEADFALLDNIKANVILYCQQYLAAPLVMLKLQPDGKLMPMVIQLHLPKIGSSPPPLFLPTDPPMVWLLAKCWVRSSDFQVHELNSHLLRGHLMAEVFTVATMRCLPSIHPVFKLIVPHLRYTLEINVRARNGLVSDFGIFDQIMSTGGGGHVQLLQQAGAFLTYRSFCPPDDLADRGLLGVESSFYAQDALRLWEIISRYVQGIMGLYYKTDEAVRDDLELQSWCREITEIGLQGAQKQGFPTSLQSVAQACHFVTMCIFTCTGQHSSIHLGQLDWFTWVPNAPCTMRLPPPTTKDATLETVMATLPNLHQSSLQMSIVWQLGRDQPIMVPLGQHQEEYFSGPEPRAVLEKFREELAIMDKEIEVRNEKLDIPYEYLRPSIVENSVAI
Test: biochemical
Format: tissue-based, Reticulocytes
Settings: read-out: IC50
With `CC#C[C@]1(O)CC[C@H]2[C@@H]3CCC4=CC(=O)CCC4=C3[C@@H](c3ccc(N(C)C)cc3)C[C@@]21C` [MIFEPRISTONE] the IC50 was 0.555 µM.

Same assay, conditions: reticulocytes
With `CC(O)C(=O)O` (configuration not stated) [LACTIC ACID] the IC50 was “Not Active”.
With `Cc1ccnc(NS(=O)(=O)c2ccc(N)cc2)n1` [SULFAMERAZINE] the IC50 was “Not Active”.
For `CC(C)(C)NC[C@H](O)COc1cccc2c1CCCC2=O` [LEVOBUNOLOL], the IC50 was “Not Active”.
With `CCOc1cc(N)c(Cl)cc1C(=O)NCC1CN(Cc2ccc(F)cc2)CCO1` (configuration not stated) [MOSAPRIDE] the IC50 was “Not Active”.
For `CC(=O)O[C@]1(C(C)=O)CC[C@H]2[C@@H]3C[C@H](C)C4=CC(=O)CC[C@]4(C)[C@H]3CC[C@@]21C` [MEDROXYPROGESTERONE ACETATE], the IC50 was “Not Active”.
In the case of `OC[C@@H](O)[C@@H](O)[C@H](O)[C@H](O)CO` [MANNITOL], the IC50 is reported as “Not Active”.
In the case of `CC(Cl)(Cl)Cl` [TRICHLOROETHANE], the IC50 is reported as “Not Active”.
With LEAD(IV) ACETATE the IC50 was “Not Active” and the Ki was “Not Active”.
With `O=C(c1ccccc1)c1ccc2n1CCC2C(=O)O` (configuration not stated) [KETOROLAC] the IC50 was “Not Active”.
